Results as given in patent US20240336567A1, “PESTICIDAL AND HERBICIDAL COMPOUNDS AND METHODS OF USE THEREOF” (AG Plenus Ltd, priority 2021, published 2024).

Test system: not listed separately
Experiment: in vitro thermal shift (binding of compound to the target)
Details: thermal shift caused by binding of the compound to the (unnamed) target

SMILES | in vitro Thermal Shift
COC(=O)COC(=O)c1cccc(OCC(C)N)n1 (stereo not shown) [Compound 180] | 12 °C
CCC(N)COc1cccc(C(=O)O)n1 (stereo not shown) [Compound 168] | 15 °C
CCOC(=O)COC(=O)c1cccc(OCC(C)N)n1 (stereo not shown) [Compound 179] | 9 °C
NC1CCCC1Oc1cccc(C(=O)O)c1 (stereo not shown) [Compound 122] | 16 °C
CCOC(=O)CNC(=O)c1cccc(OCC(C)N)n1 (stereo not shown) [Compound 176] | 2 °C
CCOC(=O)CNC(=O)c1cccc(OCC(C)N)c1 (stereo not shown) [Compound 178] | 1 °C
CC(N)COc1cccc(C(=O)OCC(=O)O)n1 (stereo not shown) [Compound 181] | 14 °C
COC(=O)c1cccc(OCC(C)N)n1 (stereo not shown) [Compound 218] | 8 °C
NCCSc1cccc(C(=O)O)c1 [Compound 151] | 5 °C
CCCCOC(=O)c1cccc(OCC(C)N)n1 (stereo not shown) [Compound 184] | 5 °C
NC1(COc2cccc(C(=O)O)c2)CC1 [Compound 121] | 11 °C
C#CCOC(=O)c1cccc(OCC(C)N)n1 (stereo not shown) [Compound 185] | 10 °C
CCOC(=O)c1cccc(OCC(C)N)c1 (stereo not shown) [Compound 150] | 6 °C
CCOC(=O)c1cccc(OCC(C)N)n1 (stereo not shown) [Compound 219] | 3 °C
CCOC(=O)CCOC(=O)c1cccc(OCC(C)N)n1 (stereo not shown) [Compound 177] | 6 °C

Other lines, results leading:

in vitro Thermal Shift | SMILES
13 °C | C[C@H](N)COc1cccc(C(=O)O)c1 [Compound 155]
14 °C | CC(N)COc1ccc(Cl)c(C(=O)O)c1 (stereo not shown) [Compound 107]
4 °C | Cc1ccc(OCCN)cc1C(=O)O [Compound 152]
9 °C | CC(N)CNc1ccc(Cl)c(C(=O)O)c1 (stereo not shown) [Compound 139]
7 °C | CC(CN)Nc1cccc(C(=O)O)c1 (stereo not shown) [Compound 119]
13 °C | CC(CN)Oc1ccc(F)c(C(=O)O)c1 (stereo not shown) [Compound 101]
9 °C | NCCOc1cccc(C(=O)O)c1 [Compound 127]
8 °C | CC(C)(N)COc1cccc(C(=O)O)c1 [Compound 103]
5 °C | CC(N)CSc1cccc(C(=O)O)c1 (stereo not shown) [Compound 140]
15 °C | C[C@H](N)COc1cccc(C(=O)O)n1 [Compound 175]
15 °C | C[C@@H](N)COc1cccc(C(=O)O)n1 [Compound 174]
6 °C | NCCNc1ccc(Cl)c(C(=O)O)c1 [Compound 133]
16 °C | CC(N)COc1cc(Cl)c(F)c(C(=O)O)c1 (stereo not shown) [Compound 186]

Test system: Arabidopsis thaliana
Experiment: HTPS (high throughput on soil) - Dicot - Post-emergence
Assay type: in vivo
Details: N/A: not active, read-out: HTPS - Dicot - Post Max effect
Procedure: (§1) Arabidopsis thaliana seeds were sown in 96 well plates filled with irrigated Sweet sand (10%>clay) that is washed from salts and minerals using tap water. 5-10 seeds were sown in the center of each well. 7-8 days post sowing, at 2 true leaves stage, thinning out was performed to ensure that compound application is done on a single plant per well. The plates were placed in a controlled greenhouse in a random order inside a bath which allows flooding irrigation with tap water supplemented with a fertilizer. Applied compounds were dissolved into a final solution of 50% acetone, 49.9% DDW, 0.1% tween-20. A 96 well plate was used as a stock plate for preparing application solutions for 8 repeats. Each row contained different concentrations per chemical. Maximal concentration for application was 1.5 Kg/Ha and dilution factor is 2.5. Chemical application was performed one day after thinning out in a chemical hood. 5 μL applied on first two true leaves in each well using 12 channel pipettes. Data collection: RGB (red, green, blue) data for green area per well was documented using camera. Data is collected at a few time points during the experiment: one day after thinning and before chemical application, two-, six- or nine-days post application. During the last two documentations, visual phenotyping was performed. Data analysis: Given RGB results and visual phenotype scores, a student t-test conducted to compare between treatment and control performance for continuous data (RGB) and Fisher exact test to analyze the non-continuous data (phenotypic scores). Dose-Response curves are generated for each treatment to infer ED50 and max. inhibition parameters, using treatment's log concentration range as the […] variable and normalized green area. Plate imaging performed at 11 and 18 DAA. RGB data for green area per well was documented and used to extract % inhibition. Dose-Response curves were built for each treatment to infer ED50, ED75 and ED90 parameters, using treatment's log concentration range as the independent variable and normalized green area as the dependent variable. Treatments were compared to controls performance given RGB results and using student's t-test (p-val≤0.05).

SMILES | Emax
COC(=O)COC(=O)c1cccc(OCC(C)N)n1 (stereo not shown) [Compound 180] | 100%
C[C@H](N)COc1cccc(C(=O)O)c1 [Compound 155] | 100%
CCC(N)COc1cccc(C(=O)O)n1 (stereo not shown) [Compound 168] | 100%
CCOC(=O)COC(=O)c1cccc(OCC(C)N)n1 (stereo not shown) [Compound 179] | 100%
CC(N)COc1cccc(C(=O)OCCC(=O)O)n1 (stereo not shown) [Compound 183] | 100%
CC(N)COc1ccc(Cl)c(C(=O)O)c1 (stereo not shown) [Compound 107] | 100%
NC1CCCC1Oc1cccc(C(=O)O)c1 (stereo not shown) [Compound 122] | 100%
CCOC(=O)CNC(=O)c1cccc(OCC(C)N)n1 (stereo not shown) [Compound 176] | 100%
CCOC(=O)CNC(=O)c1cccc(OCC(C)N)c1 (stereo not shown) [Compound 178] | 100%
CC(CN)Nc1cccc(C(=O)O)c1 (stereo not shown) [Compound 119] | 33%
CC(CN)Oc1ccc(F)c(C(=O)O)c1 (stereo not shown) [Compound 101] | 24%
NCCOc1cccc(C(=O)O)c1 [Compound 127] | 100%
CC(N)COc1cccc(C(=O)OCC(=O)O)n1 (stereo not shown) [Compound 181] | 100%
COC(=O)c1cccc(OCC(C)N)n1 (stereo not shown) [Compound 218] | 100%
COC(=O)CCOC(=O)c1cccc(OCC(C)N)n1 (stereo not shown) [Compound 182] | 100%
CC(C)(N)COc1cccc(C(=O)O)c1 [Compound 103] | 100%
CC(N)CSc1cccc(C(=O)O)c1 (stereo not shown) [Compound 140] | 15%
C[C@H](N)COc1cccc(C(=O)O)n1 [Compound 175] | 100%
CCCCOC(=O)c1cccc(OCC(C)N)n1 (stereo not shown) [Compound 184] | 100%
C[C@@H](N)COc1cccc(C(=O)O)n1 [Compound 174] | 100%
NCCNc1ccc(Cl)c(C(=O)O)c1 [Compound 133] | 40%
NC1(COc2cccc(C(=O)O)c2)CC1 [Compound 121] | 99%
CC(N)COc1cc(Cl)c(F)c(C(=O)O)c1 (stereo not shown) [Compound 186] | 100%
C#CCOC(=O)c1cccc(OCC(C)N)n1 (stereo not shown) [Compound 185] | 100%
NC1CCCC1Oc1cccc(C(=O)O)n1 (stereo not shown) [Compound 173] | 100%
CCOC(=O)c1cccc(OCC(C)N)n1 (stereo not shown) [Compound 219] | 100%
CCOC(=O)CCOC(=O)c1cccc(OCC(C)N)n1 (stereo not shown) [Compound 177] | 100%

Same assay, conditions: from normalized green area, N/A: not active

SMILES | HTPS - Dicot - Post ED50
COC(=O)COC(=O)c1cccc(OCC(C)N)n1 (stereo not shown) [Compound 180] | 13 g/ha
C[C@H](N)COc1cccc(C(=O)O)c1 [Compound 155] | 56 g/ha
CCC(N)COc1cccc(C(=O)O)n1 (stereo not shown) [Compound 168] | 22 g/ha
CCOC(=O)COC(=O)c1cccc(OCC(C)N)n1 (stereo not shown) [Compound 179] | 22 g/ha
CC(N)COc1cccc(C(=O)OCCC(=O)O)n1 (stereo not shown) [Compound 183] | 17 g/ha
CC(N)COc1ccc(Cl)c(C(=O)O)c1 (stereo not shown) [Compound 107] | 400 g/ha
NC1CCCC1Oc1cccc(C(=O)O)c1 (stereo not shown) [Compound 122] | 19 g/ha
CCOC(=O)CNC(=O)c1cccc(OCC(C)N)n1 (stereo not shown) [Compound 176] | 85 g/ha
CCOC(=O)CNC(=O)c1cccc(OCC(C)N)c1 (stereo not shown) [Compound 178] | 39 g/ha
NCCOc1cccc(C(=O)O)c1 [Compound 127] | 134 g/ha
CC(N)COc1cccc(C(=O)OCC(=O)O)n1 (stereo not shown) [Compound 181] | 23 g/ha
COC(=O)c1cccc(OCC(C)N)n1 (stereo not shown) [Compound 218] | 14 g/ha
COC(=O)CCOC(=O)c1cccc(OCC(C)N)n1 (stereo not shown) [Compound 182] | 72 g/ha
CC(C)(N)COc1cccc(C(=O)O)c1 [Compound 103] | 157 g/ha
C[C@H](N)COc1cccc(C(=O)O)n1 [Compound 175] | 7 g/ha
CCCCOC(=O)c1cccc(OCC(C)N)n1 (stereo not shown) [Compound 184] | 36 g/ha
C[C@@H](N)COc1cccc(C(=O)O)n1 [Compound 174] | 44 g/ha
NC1(COc2cccc(C(=O)O)c2)CC1 [Compound 121] | 256 g/ha
CC(N)COc1cc(Cl)c(F)c(C(=O)O)c1 (stereo not shown) [Compound 186] | 200 g/ha
C#CCOC(=O)c1cccc(OCC(C)N)n1 (stereo not shown) [Compound 185] | 30 g/ha
NC1CCCC1Oc1cccc(C(=O)O)n1 (stereo not shown) [Compound 173] | 463 g/ha
CCOC(=O)c1cccc(OCC(C)N)n1 (stereo not shown) [Compound 219] | 48 g/ha
CCOC(=O)CCOC(=O)c1cccc(OCC(C)N)n1 (stereo not shown) [Compound 177] | 27 g/ha

Test system: Arabidopsis thaliana
Experiment: HTPS - Dicot - Pre-emergence
Assay type: in vivo
Details: N/A: not active
Procedure: as §1, with “area. These experiments are conducted similarly except that either Arabidopsis thaliana or Eragrostis teff seeds were sowed (5-10 or 5-7, respectively), plant thinning out was not performed, compound dissolved into a final solution of 50% acetone, 49.9% DDW, compound application was done at 30 μL volume per well directly on sowed soil before plant emergence and data was collected 10 or 7 days after chemical application on dicot or monocot plants, respectively.” for “area.”

SMILES | HTPS - Dicot - Pre ED50
C[C@H](N)COc1cccc(C(=O)O)c1 [Compound 155] | 60 g/ha
CC(N)COc1ccc(Cl)c(C(=O)O)c1 (stereo not shown) [Compound 107] | 127 g/ha
CC(N)CNc1ccc(Cl)c(C(=O)O)c1 (stereo not shown) [Compound 139] | 256 g/ha
NCCOc1cccc(C(=O)O)c1 [Compound 127] | 180 g/ha
C[C@H](N)COc1cccc(C(=O)O)n1 [Compound 175] | 3.8 g/ha
C[C@@H](N)COc1cccc(C(=O)O)n1 [Compound 174] | 3.8 g/ha
CCOC(=O)c1cccc(OCC(C)N)c1 (stereo not shown) [Compound 150] | 150 g/ha

Same assay, conditions: N/A: not active, read-out: HTPS - Dicot - Pre Max effect

SMILES | Emax
C[C@H](N)COc1cccc(C(=O)O)c1 [Compound 155] | 100%
CC(N)COc1ccc(Cl)c(C(=O)O)c1 (stereo not shown) [Compound 107] | 100%
CC(N)CNc1ccc(Cl)c(C(=O)O)c1 (stereo not shown) [Compound 139] | 100%
CC(CN)Nc1cccc(C(=O)O)c1 (stereo not shown) [Compound 119] | 22%
CC(CN)Oc1ccc(F)c(C(=O)O)c1 (stereo not shown) [Compound 101] | 20%
NCCOc1cccc(C(=O)O)c1 [Compound 127] | 100%
CC(N)CSc1cccc(C(=O)O)c1 (stereo not shown) [Compound 140] | 0%
C[C@H](N)COc1cccc(C(=O)O)n1 [Compound 175] | 100%
C[C@@H](N)COc1cccc(C(=O)O)n1 [Compound 174] | 100%
NCCNc1ccc(Cl)c(C(=O)O)c1 [Compound 133] | 5%
CCOC(=O)c1cccc(OCC(C)N)c1 (stereo not shown) [Compound 150] | 100%

Test system: Eragrostis teff
Experiment: HTPS - Monocot - Pre-emergence
Assay type: in vivo
Details: N/A: not active
Procedure: as §1, with “area. These experiments are conducted similarly except that either Arabidopsis thaliana or Eragrostis teff seeds were sowed (5-10 or 5-7, respectively), plant thinning out was not performed, compound dissolved into a final solution of 50% acetone, 49.9% DDW, compound application was done at 30 μL volume per well directly on sowed soil before plant emergence and data was collected 10 or 7 days after chemical application on dicot or monocot plants, respectively.” for “area.”

SMILES | HTPS - Monocot - Pre ED50
C[C@H](N)COc1cccc(C(=O)O)c1 [Compound 155] | 170 g/ha
CC(N)COc1ccc(Cl)c(C(=O)O)c1 (stereo not shown) [Compound 107] | 660 g/ha

Same assay, conditions: N/A: not active, read-out: HTPS - Monocot - Pre Max effect

SMILES | Emax
C[C@H](N)COc1cccc(C(=O)O)c1 [Compound 155] | 100%
CC(N)COc1ccc(Cl)c(C(=O)O)c1 (stereo not shown) [Compound 107] | 45%
NC1CCCC1Oc1cccc(C(=O)O)c1 (stereo not shown) [Compound 122] | 89%
CC(CN)Nc1cccc(C(=O)O)c1 (stereo not shown) [Compound 119] | 3%
CC(CN)Oc1ccc(F)c(C(=O)O)c1 (stereo not shown) [Compound 101] | 12%
NCCOc1cccc(C(=O)O)c1 [Compound 127] | 94%
CC(N)CSc1cccc(C(=O)O)c1 (stereo not shown) [Compound 140] | 33%
NCCNc1ccc(Cl)c(C(=O)O)c1 [Compound 133] | 0%
